Source: article PMC9502528, “Stability Study of Alpinia galanga Constituents and Investigation of Their Membrane Permeability by ChemGPS-NP and the Parallel Artificial Membrane Permeability Assay” (Pharmaceutics, 2022)
Read-outs that look alike come from different tables or passages of the source.

Legend:
[1] = PAMPA-BBB (parallel artificial membrane permeability assay, porcine polar brain lipid extract); format: in vitro ADME
Experimental: The test solutions were prepared with DMSO at the concentration of 10.0 mM. These were diluted with PBS buffer pH = 7.4 (PAMPA-BBB) or pH = 6.8 (PAMPA-GI) to obtain the donor solutions (297.0 μL buffer + 3.0 μL DMSO solution) and filtered through Phenex-RC 15 mm, 0.2 μm syringe filters (Gen-Lab Ltd., Budapest, Hungary). A parallel artificial membrane permeability assay (PAMPA) system was used to determine the effective permeability (Pe) for the compounds of interest. Each well of the top plate (96-well polycarbonate-based filter donor plates (Multiscreen™-IP, MAIPN4510, pore size 0.45 μm; Millipore)) was coated with 5 μL of porcine polar brain lipid extract (PBLE) solution (8.0 mg PBLE + 4.0 mg cholesterol dissolved in 300.0 μL n-dodecane) for PAMPA-BBB; or with 5 μL of mixture of 8.0 mg phosphatidylcholine + 4.0 mg cholesterol dissolved in 300.0 μL n-dodecane for PAMPA-GI. Then, 150.0 μL of the filtrate was placed on the membrane. The bottom plate (96-well PTFE acceptor plates (Multiscreen Acceptor Plate, MSSACCEPTOR; Millipore)), was filled with 300.0 μL buffer solution (0.01 M PBS buffer, pH = 7.4). The donor and acceptor plates were fit, and then the sandwich system was incubated at 37 °C for 4 h in a Stat-Fax 2200 (Awareness Technology, Palm City, FL, USA). After the incubation, the PAMPA plates were separated and the compound concentrations in the donor (CD(t)) and acceptor (CA(t)) solutions, as well as in the donor solution at zero time point (CD(0)), were determined by UPLC-DAD. […] At iso-pH conditions (PAMPA-BBB), the effective permeability and the membrane retention of drugs were calculated by the following equation [21]:(1) Pe =−2.303/A(t−τSS)·(VA·VD/VA+VD)·lg[1−(VA+VD/(1−MR)·VD)×(CA(t)/CD(0))], where Pe is the effective permeability coefficient (cm/s), A is the filter area (0.24 cm^2), VD and VA are the volumes in the donor (0.15 cm^3) and acceptor phases (0.30 cm^3), t is the incubation time (s), τSS is the time (s) to reach steady-state (240 s), CD(t) is the concentration (mol/cm^3) of the compound in the donor phase at time t, CD(0) is the concentration (mol/cm^3) of the compound in the donor phase at time 0, and MR is the estimated membrane retention factor (the estimated mole fraction of solute lost to the membrane):(2) MR=1−CD(t)/CD(0)−VA/VDCA(t)/CD(0)
All experiments were performed in three triplicates on three consecutive days (n = 9).

[2] = tested on: nitric oxide (NO) production in mouse peritoneal macrophages; design: method as in PMID 15930771; conditions: cited from earlier work
[3] = PAMPA-GI of the A. galanga ethyl acetate extract; format: in vitro ADME; conditions: donor PBS pH 6.8, 37 °C, 4 h, UHPLC-DAD
Experimental: The test solutions were prepared with DMSO at the concentration of 10.0 mM. These were diluted with PBS buffer pH = 7.4 (PAMPA-BBB) or pH = 6.8 (PAMPA-GI) to obtain the donor solutions (297.0 μL buffer + 3.0 μL DMSO solution) and filtered through Phenex-RC 15 mm, 0.2 μm syringe filters (Gen-Lab Ltd., Budapest, Hungary). A parallel artificial membrane permeability assay (PAMPA) system was used to determine the effective permeability (Pe) for the compounds of interest. Each well of the top plate (96-well polycarbonate-based filter donor plates (Multiscreen™-IP, MAIPN4510, pore size 0.45 μm; Millipore)) was coated with 5 μL of porcine polar brain lipid extract (PBLE) solution (8.0 mg PBLE + 4.0 mg cholesterol dissolved in 300.0 μL n-dodecane) for PAMPA-BBB; or with 5 μL of mixture of 8.0 mg phosphatidylcholine + 4.0 mg cholesterol dissolved in 300.0 μL n-dodecane for PAMPA-GI. Then, 150.0 μL of the filtrate was placed on the membrane. The bottom plate (96-well PTFE acceptor plates (Multiscreen Acceptor Plate, MSSACCEPTOR; Millipore)), was filled with 300.0 μL buffer solution (0.01 M PBS buffer, pH = 7.4). […] After the incubation, the PAMPA plates were separated and the compound concentrations in the donor (CD(t)) and acceptor (CA(t)) solutions, as well as in the donor solution at zero time point (CD(0)), were determined by UPLC-DAD. […]

[4] = Stability analyses in PBS (pH 7.4) at 37 °C for 4 h, UPLC-DAD; format: physicochemical; conditions: for percentage difference between the initial and final concentrations: PBS pH 7.4, 37 °C, 4 h, 100 μM; for stability in aqueous media: aqueous media (PBS)
Experimental: The isolation of 8 compounds (compounds 1, 2, […], 5, 6, 7, 9, and 10) was carried out using flash chromatography and semi-preparative HPLC; the corresponding data is presented in the Supplementary Materials. For stability analyses, the stock solutions were prepared from the ethyl acetate extract (200 mg/mL) and from compounds 1, 2, 4, 5, 6, 7, 9, and 10 dissolved in dimethyl sulfoxide (DMSO) at the concentration of 10.0 mM. These were diluted 100-fold with PBS (Phosphate Buffer Saline; pH = 7.4). The samples were filtered through Phenex-RC 15 mm, 0.2 μm syringe filters (Gen-Lab Ltd., Budapest, Hungary). The solutions were incubated at 37 °C for 4 h; the decomposition was determined by UPLC-DAD. All experiments were performed in triplicates, on three consecutive days ([…]).
The eight isolated compounds (p-OH-benzaldehyde (1), trans-p-coumaryl-alcohol (2), p-coumaryl-aldehyde (4), galanganol A (5), galanganol B (6), trans-p-acetoxycinnamyl alcohol (7), 1′S-1′-acetoxychavicol acetate (9), and 1′S-1′-acetoxyeugenol acetate (10)) were identified by UHPLC-high-resolution Orbitrap® mass spectrometry (HR-MS) and by NMR spectroscopy; the corresponding data is presented in the Supplementary Materials, while Figure 3 depicts the structures of the isolated compounds. In order to answer the questions raised about the possible conversion and decomposition of the A. galanga constituents during the PAMPA-BBB experiment, investigation of the chemical stability of the isolated compounds was carried out in PBS medium (pH 7.4) at 37 °C for 4 h. For the analysis of the samples acquired in the stability experiments, the aforementioned UHPLC-DAD method that had previously been validated for linearity, precision, and accuracy was utilized (Tables S1 and S2).

[5] = design: method as in PMID 10564034; conditions: 5% ethanol-containing aqueous solution at 60 °C; cited from earlier work
[6] = PAMPA-BBB, pH 7.4, 37 °C, 4 h, Pe in cm/s, n = 9
[7] = pig, PAMPA, pH 7.4, Table S4 sheet Galangal compounds, PAMPA-BBB, read-out: logPe (converted)

Row | SMILES | PAMPA-BBB (blood–brain barrier permeability) ([1]; cutoff log Pe −6.0) | Papp at 4 h, 100 µM [1, 7] [×10⁻⁶ cm/s] | nitric oxide (NO) production inhibitory activity [2] | percentage difference between the initial and final concentrations [4] [%] | stability in aqueous media [4] | other results
1 | O=Cc1ccc(O)cc1 [Compound 1, p-OH-benzaldehyde] | + | 2.75 |  |  |  | log Pe [1, 6]: −5.56 ± 0.07
2 | OC/C=C/c1ccc(O)cc1 [Compound 2, trans-p-coumaryl-alcohol] | + | 1.38 | showed nitric oxide (NO) production inhibitory activities |  |  | log Pe [1, 6]: −5.86 ± 0.23
3 | OC/C=C\c1ccc(O)cc1 [Compound 3a, cis-p-coumaryl-alcohol] |  | 1.38 |  |  |  | 
4 | O=C/C=C/c1ccc(O)cc1 [Compound 4, p-coumaryl-aldehyde] |  |  | showed nitric oxide (NO) production inhibitory activities |  |  | PAMPA-BBB (blood–brain barrier permeability) ([1]; PAMPA): +; log Pe ([1]; pig, PAMPA, 4 h, 100 µM, pH 7.4): −5.25 ± 0.27; Papp at 4 h, 100 µM ([1]; pig, PAMPA, pH 7.4, logPe): 5.62 ×10⁻⁶ cm/s
5 | OC[C@@H](C/C=C/c1ccc(O)cc1)[C@H](O)c1ccc(O)cc1 [Compound 5, galanganol A] | − | 0.776 |  |  |  | detection in the acceptor solution (PAMPA-GI) [3]: except for compounds 5 and 6
6 | OC[C@H](C/C=C/c1ccc(O)cc1)[C@H](O)c1ccc(O)cc1 [Compound 6, galanganol B] | − | 0.776 | showed nitric oxide (NO) production inhibitory activities |  |  | detection in the acceptor solution (PAMPA-GI) [3]: except for compounds 5 and 6; Papp at 4 h, 100 µM ([1]; pig, PAMPA, pH 7.4, PAMPA-BBB, pH 7.4, 37 °C, 4 h, Pe in cm/s, n = 9, read-out: log Pe (converted)): 0.724 ×10⁻⁶ cm/s
7 | CC(=O)Oc1ccc(/C=C/CO)cc1 [Compound 7, trans-p-acetoxycinnamyl alcohol] |  | 31.6 |  | 8.04 | unstable | 
8 | CC(=O)Oc1ccc(/C=C\CO)cc1 [Compound 8a, cis-p-acetoxycinnamyl alcohol] |  | 31.6 |  |  |  | 
9 | C=C[C@H](OC(C)=O)c1ccc(OC(C)=O)cc1 [Compound 9, 1′S-1′-acetoxychavicol acetate] |  | 39.8 | showed nitric oxide (NO) production inhibitory activities | 57.78 | unstable | stability in aqueous ethanol [5]: instability
10 | C=C[C@H](OC(C)=O)c1ccc(OC(C)=O)c(OC)c1 [Compound 10, 1′S-1′-acetoxyeugenol acetate] |  | 50.1 | showed nitric oxide (NO) production inhibitory activities | 14.32 | unstable | 
